Laboratory results taken from patent publication US20250388575A1, “HETEROBIFUNCTIONAL COMPOUNDS AND METHODS OF TREATING DISEASE” (Halda Therapeutics OpCo, Inc., priority 2022, published 2025).
Where two headings read alike, the source gives them in different places.

How the values were obtained:
[1] = system: T-Rex 293 cell line SC3 cells having increased expression of androgen receptor protein; experiment: Cellular growth inhibition, T-Rex 293 SC3 cells with increased androgen receptor expression (doxycycline), CellTiter-Glo; type: cell-based; settings: T-Rex 293 SC3 cells with increased androgen receptor expression (exposed to 10 ng/mL doxycycline), 72 hours, CellTiter-Glo; read-out: GI50
In short: (§1)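 SC3, a T-Rex 293 clone with doxycycline-inducible wild-type androgen receptor, was seeded in phenol red-free DMEM with 10% charcoal-dextran FBS, with or without 10 ng/mL doxycycline. Compound added at 24 h (0.5% DMSO) for 72 h at 37° C. CellTiter-Glo 2.0 luminescence; GI50 from four-parameter fit.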

[2] = system: T-Rex 293 cell line SC3 cells lacking increased expression of androgen receptor protein; experiment: Cellular growth inhibition, T-Rex 293 SC3 cells lacking increased androgen receptor expression (no doxycycline), CellTiter-Glo; type: cell-based; settings: T-Rex 293 SC3 cells lacking increased androgen receptor expression (not exposed to doxycycline), 72 hours, CellTiter-Glo; read-out: GI50
In short: as §1

VCaP cells = experiment: Cellular growth inhibition assay for VCaP cells, CellTiter-Glo; type: cell-based, human; settings: VCaP cells, 72 hours, CellTiter-Glo, read-out: GI50
In short: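 GI50 values come from four-parameter curve fits of luminescence data normalized to a zero baseline. Compound, in medium with 0.5% DMSO, was added one day after plating and left for 72 h before CellTiter-Glo 2.0 addition.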

T47D cells = experiment: Cellular growth inhibition assay for T47D cells, CellTiter-Glo; type: cell-based, human; settings: 72 hours treatment, CellTiter-Glo 2.0
In short: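 Growth inhibition as GI50, fitted with four parameters to CellTiter-Glo luminescence after 72 h of compound exposure (0.5% DMSO). Cells were T47D, grown in insulin-supplemented (0.2 units/mL) DMEM with 10% FBS and treated one day post-seeding.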

[3] = target: progesterone receptor ligand binding domain (LBD) (Homo sapiens (Human), UniProt P06401); experiment: FP assay for binding affinity to progesterone receptor (PolarScreen Progesterone Receptor Competitor Assay); settings: GST-tagged PR LBD, Fluormone tracer, fluorescence polarization, 2 hours at room temperature
Procedure: Compounds were tested using the PolarScreen™ Progesterone Receptor Competitor Assay Kit (Life Technologies Cat #A15905 or a15906), as per the manufacturer's instructions. Briefly, GST-tagged PR LBD, Fluormone tracer, and compound were mixed and incubated for 2 hours at room temperature in the dark. Following incubation, the plates were spun at 3000×g for 30 seconds, then sealed with an optical adhesive cover, and fluorescence polarization was measured using appropriate excitation and emission filters with an EnVision Plate Reader (Perkin Elmer). Compound concentration vs. mP value were plotted in Prism (GraphPad). A four-parameter non-linear regression curve fit was applied to dose-response data to determine the half-maximal inhibitory concentration (IC50) for each test compound.

[4] = system: T-Rex 293 cell line SC cells having increased expression of progesterone receptor isoform B protein; experiment: Cellular growth inhibition, T-Rex 293 SC cells with increased progesterone receptor isoform B expression (doxycycline), CellTiter-Glo; type: cell-based; settings: progesterone receptor isoform B induced with 10 ng/mL doxycycline, 72 hours
Procedure: (§2) The following types of cells were prepared for this experiment: (i) a T-Rex 293 cell line having increased expression of progesterone receptor isoform B protein due to exposure to doxycycline and (ii) a T-Rex 293 cell line lacking increased expression of progesterone receptor isoform B protein. Ability of the test compounds to inhibit proliferation of the foregoing cell types was evaluated according to the procedures set forth below.
(§3) The doxycycline-inducible progesterone receptor isoform B protein expressing cell line was established using the following protocol: T-Rex 293 cells were purchased from Invitrogen (Cat #R71007) and transfected using Lipofectamine 2000 with the wild-type progesterone receptor B protein sequence cloned into the pcDNA4/TO vector. Transfected cells were selected using 400 μg/mL Zeocin (Invitrogen Cat #R25001). Following selection, single clones were raised and maintained in Dulbecco's Modified Eagle Medium (DMEM) supplemented with 10% w/w Tetracycline-free fetal bovine serum (FBS) and 250 μg/mL Zeocin. Clones were analyzed for expression of progesterone receptor isoform B protein in the presence and absence of 10 ng/ml doxycycline (Sigma Cat #D9891), and a single doxycycline-inducible clone (hereinafter “SC”) was selected for use in downstream assays.
(§4) The SC cells were seeded on poly-D-lysine coated, black clear-bottom 384-well plates at 2500/well, in 25 μL Phenol Red Free Dulbecco's Modified Eagle Medium (DMEM) supplemented with 10% w/w charcoal-dextran treated fetal bovine serum (FBS) and 1% w/w pen-strep, with or without 10 ng/mL doxycycline. Pen-Strep is a commercially available mixture of penicillin G and streptomycin, which is used in mammalian cell culture media to prevent bacterial contamination. Phenol Red Free Dulbecco's Modified Eagle Medium (DMEM) supplemented with 10% w/w charcoal-dextran treated fetal bovine serum (FBS) and 1% w/w pen-strep, with or without 10 ng/mL doxycycline is herein referred to as Treatment Medium. Following seeding of cells in the plates, the plates were spun at 300×g for 30 seconds, then equilibrated to room temperature for 30 minutes, and then deposited in a humidified tissue culture incubator maintained at 37° C. with 5% CO2.
(§5) At 24 hours after seeding of the cells, dilutions of test compound were prepared in DMSO and dissolved in Treatment Medium, to achieve a final DMSO concentration of 0.5% w/w, thereby providing the Test Compound Solution. A 25 μL aliquot of the Test Compound Solution was added to cells in the well plates. An equal volume of a solution containing DMSO and Treatment Medium was used as a negative control. Following treatment of cells with Test Compound Solution or said equal volume of a solution containing DMSO and Treatment Medium, the plates were spun at 300×g for 30 seconds, and then left in an incubator for 72 hours.
(§6) At the end of the treatment duration, cell viability was quantified with CellTiter-Glo 2.0 reagent (Promega Cat #G9243). For this purpose, plates were equilibrated to room temperature for 30 minutes, and then 25 μL of CellTiter-Glo 2.0 reagent was added to cells in the plate wells. Plates were then agitated on a shaker for two minutes at 500 rpm and subsequently incubated at room temperature for 10 minutes. Following incubation, the plates were spun at 3000×g for 30 seconds, then sealed with an optical adhesive cover, and luminescence readings were measured with an EnVision Plate Reader (Perkin Elmer).
(§7) Data was normalized using zero luminescence for baseline. A four-parameter non-linear regression curve fit was applied to dose-response data in GraphPad Prism data analysis software to determine the half-maximal growth inhibitory concentration (GI50) for each test compound.

[5] = system: T-Rex 293 cell line SC cells lacking increased expression of progesterone receptor isoform B protein; experiment: Cellular growth inhibition, T-Rex 293 SC cells lacking increased progesterone receptor isoform B expression (no doxycycline), CellTiter-Glo; type: cell-based; settings: T-Rex 293 SC cells not exposed to doxycycline, 72 hours
Procedure: as §2, §3, §4, §5, §6, §7

progesterone receptor ligand binding domain (LBD), sequence (P06401 679-913): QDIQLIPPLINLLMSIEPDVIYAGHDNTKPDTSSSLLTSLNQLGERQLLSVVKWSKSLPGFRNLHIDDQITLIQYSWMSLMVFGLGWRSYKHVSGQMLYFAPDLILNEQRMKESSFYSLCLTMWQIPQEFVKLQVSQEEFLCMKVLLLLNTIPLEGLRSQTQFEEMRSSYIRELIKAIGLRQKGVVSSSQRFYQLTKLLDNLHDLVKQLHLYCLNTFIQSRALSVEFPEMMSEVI

Structure (SMILES) | GI50 [1] [nM] | GI50 [2] [nM] | GI50 (VCaP cells) [nM] | GI50 (T47D cells) [nM] | IC50 [3] [nM] | GI50 (VCaP cells; Homo sapiens) [nM] | GI50 [4] [nM] | GI50 [5] [nM] | GI50 (T47D cells; Homo sapiens) [nM]
Cn1cc(-c2cc(S(=O)(=O)CCCCCN3CCN(c4ccc(C(=O)N[C@H]5CC[C@H](Oc6ccc(C#N)c(Cl)c6)CC5)nn4)CC3)ccc2Oc2ccc(F)cc2F)c2cc[nH]c2c1=O [I-94] | < 500 | > 3000 | < 500 | 500 to 1500 | 50 to 500 |  |  |  | 
CN(CCc1ccc(Oc2ccc(C(C)(C)O)cc2-c2cn(C)c(=O)c3[nH]ccc23)cc1)c1ccc(C(=O)NC2CCC(Oc3ccc(C#N)c(Cl)c3)CC2)nn1 (stereo not shown) [I-100, N-[4-(3-chloro-4-cyano-phenoxy)cyclohexyl]-6-[2-[4-[4-(1-hydroxy-1-methyl-ethyl)-2-(6-methyl-7-oxo-1H-pyrrolo[2,3-c]pyridin-4-yl)phenoxy]phenyl]ethyl-methyl-amino]pyridazine-3-carboxamide] | < 500 | < 500 |  |  |  | < 500 | < 500 | < 500 | < 500
Cn1cc(-c2cc(C(C)(C)O)ccc2Oc2ccc(CC3CCN(c4ccc(C(=O)N[C@H]5CC[C@H](Oc6ccc(C#N)c(Cl)c6)CC5)nn4)CC3)cc2)c2cc[nH]c2c1=O [I-101] | < 500 | 500 to 1500 |  |  |  | < 500 | < 500 | < 500 | < 500
Cn1cc(-c2cc(C(C)(C)O)ccc2Oc2ccc(CCOC3CCN(c4ccc(C(=O)N[C@H]5CC[C@H](Oc6ccc(C#N)c(Cl)c6)CC5)nn4)CC3)cc2)c2cc[nH]c2c1=O [I-103] | < 500 | < 500 |  |  |  | < 500 | < 500 | < 500 | < 500
Cn1cc(-c2cc(C(C)(C)O)ccc2Oc2ccc(CCOC3CCN(c4ccc(C(=O)N[C@H]5CC[C@H](Oc6ccc(C#N)c(Cl)c6)CC5)nn4)CC3)cc2F)c2cc[nH]c2c1=O [I-106] | < 500 | < 500 |  |  | 50 to 500 | 500 to 1500 |  |  | < 500
Cn1cc(-c2cc(C(C)(C)O)ccc2Oc2cc(F)c(CCOC3CCN(c4ccc(C(=O)N[C@H]5CC[C@H](Oc6ccc(C#N)c(Cl)c6)CC5)nn4)CC3)cc2F)c2cc[nH]c2c1=O [I-107] | < 500 | < 500 |  |  | 50 to 500 | < 500 |  |  | < 500
CN(c1ccc(Oc2ccc(C(C)(C)O)cc2-c2cn(C)c(=O)c3[nH]ccc23)cc1)C1CN(c2ccc(C(=O)N[C@H]3CC[C@H](Oc4ccc(C#N)c(Cl)c4)CC3)nn2)C1 [I-138] | < 500 | < 500 |  |  |  | < 500 | < 500 | < 500 | < 500
Cn1cc(-c2cc(C(C)(C)O)ccc2Oc2ccc(N3CCN(c4ccc(C(=O)N[C@H]5CC[C@H](Oc6ccc(C#N)c(Cl)c6)CC5)nn4)CC3)cc2)c2cc[nH]c2c1=O [I-139] | < 500 | < 500 | < 500 | < 500 |  |  | < 500 | < 500 | 
CC(C)N(C1CCN(c2ccc(C(=O)N[C@H]3CC[C@H](Oc4ccc(C#N)c(Cl)c4)CC3)nn2)CC1)C1CN(c2cccc(Oc3ccc(C(C)(C)O)cc3-c3cn(C)c(=O)c4[nH]ccc34)c2F)C1 [I-141] | < 500 | 500 to 1500 | > 3000 | 500 to 1500 | 50 to 500 |  |  |  | 
Cn1cc(-c2cc(C(C)(C)O)ccc2Oc2ccc(N3CC(C4CCN(c5ccc(C(=O)N[C@H]6CC[C@H](Oc7ccc(C#N)c(Cl)c7)CC6)nn5)CC4)C3)cc2)c2cc[nH]c2c1=O [I-148] | < 500 | > 3000 | < 500 | < 500 |  |  | < 500 | 500 to 1500 | 
Cn1cc(-c2cc(C(C)(C)O)ccc2Oc2ccc(OCC3CCN(c4ccc(C(=O)NC5CCC(Oc6ccc(C#N)c(Cl)c6)CC5)nn4)CC3)cc2)ccc1=O (stereo not shown) [I-235, N-[4-(3-chloro-4-cyano-phenoxy)cyclohexyl]-6-[4-[[4-[4-(1-hydroxy-1-methyl-ethyl)-2-(1-methyl-6-oxo-3-pyridyl)phenoxy]phenoxy]methyl]-1-piperidyl]pyridazine-3-carboxamide] | < 500 | > 3000 |  |  | 50 to 500 | < 500 |  |  | 500 to 1500
